# Test system: patients with inadequately managed, severe chronic low back pain with or without a neuropathic pain component
# Assay: Hospital Anxiety and Depression Scale (HADS) anxiety score; open-label phase IIIb trial, tapentadol prolonged release 50-250 mg bid for up to 12 weeks
# Assay type: in vivo, human patients
# Experimental: As used herein, the “anxiety score” is a value determining the degree of the […]. The scale of anxiety scores covers the range from 0 to 21, wherein the degree of the anxiety is high in case of high values and low in case of low values. In a group of tested subjects, typically the mean or mediate values of anxiety scores are determined and referred to. The mean value is the sum of all anxiety scores divided by the number of subjects. The mediate value is the middle anxiety score in the set of determined scores. Preferably, the “anxiety score” is defined as in the experimental section.
# A subgroup suffering from neuropathic pain due to lumbar radiculopathy was also investigated.
# This was a multicenter, multinational, open-label, effectiveness phase IIIb trial to evaluate effectiveness and safety of tapentadol prolonged release treatment in patients with inadequately managed, severe chronic low back pain with or without a neuropathic pain component. Patients taking WHO Step II analgesics discontinued those analgesics before starting study medication; patients taking Step I analgesics and/or centrally acting co-analgesics continued on the same dose. […] All patients received tapentadol prolonged release (50-250 mg bid) for up to 12 weeks (5-week titration period and a 7-week maintenance period). Tapentadol immediate release (IR) 50 mg (twice a day, hours apart) was permitted (combined total daily dose of tapentadol prolonged release and tapentadol IR, 500 mg/day). The primary efficacy endpoint was the change from Baseline to Week 6 (when tapentadol prolonged release doses were stable) in average pain intensity on the 11-point NRS-3 using the last observation carried forward (LOCF) for imputing missing scores. The painDETECT questionnaire was used to evaluate the likelihood of a neuropathic pain component of low back pain; patients were classified as painDETECT “negative,” “unclear,” or “positive.” The population of patients classified as painDETECT negative was limited to approximately 30% of the total population.
# In the painDETECT positive trial population the “diagnosis of lumbar radiculopathy” was evaluated which was defined per study protocol according following criteria: • typical dermatomal pain (radiating beyond the knee towards the foot, pain evoked by stretching within distribution of the ischiadic/femoral nerve) • signs of root dysfunction: • such as sensory impairment, motor symptoms from compression of lumbar nerve root (L4, L5, S1). • and/or absent or diminished quadriceps femoris or triceps surae reflexes. • and/or quantitative sensory testing (QST) deficit and pain distribution present in the same dermatomal area.
# All subjects completed Short Form-36 (SF-36) and EuroQol-5 Dimension (EQ-5D) questionnaires and the Hospital Anxiety and Depression Scale (HADS). The Patient Global Impression of Change (PGIC) and Clinical global impression of change (CGIC) were also used as secondary endpoints. For both tests, patients completed the statement, “since I began trial treatment, I would rate my overall condition as,” using 7 possible responses (“very much worse” to “very much improved”). Adverse events were recorded throughout the trial.
# In the following • (i) N is the number of subjects of the specified diagnosis group, • (ii) n is the number of subjects with data available, • (iii) “Mean” is the mean score of the subjects, i.e. the sum of all scores is divided by the number of subjects, • (iv) SD is the standard deviation, • (v) “Median” is the median score of the subjects, i.e. the middle score in the set of scores, • (vi) “Range” is the range of scores of the subjects, i.e. the range defined by the lowest and the highest score of the set of scores. First, the depression scores are presented. The total number of subjects in the clinical study: N=175
# [1] = Visit 8, presumed neuropathic pain component N=41
# [2] = Visit 8, presumed or defined neuropathic
# [3] = Visit 8, presumed or defined neuropathic pain component N=126
# [4] = Visit 8, subjects with nociceptive pain N=49
# [5] = Visit 9, defined neuropathic pain N=85
# [6] = Visit 9, positive diagnosis of lumbar radiculopathy-neuropathic pain subset N=44
# [7] = Visit 9, presumed neuropathic pain component N=41
# [8] = Visit 9, presumed or defined neuropathic pain component N=126
# [9] = Visit 9, subjects with nociceptive pain N=49
# [10] = Visit 10, defined neuropathic pain N=85
# [11] = Visit 10, positive diagnosis of lumbar radiculopathy-neuropathic pain subset N=44
# [12] = Visit 10, presumed neuropathic pain component N=41
# [13] = Visit 10, presumed or defined neuropathic pain component N=126
# [14] = Visit 10, subjects with nociceptive pain N=49
# [15] = Visit 11, defined neuropathic pain N=85
# [16] = Visit 11, positive diagnosis of lumbar radiculopathy-neuropathic pain subset N=44
# [17] = Visit 11, presumed neuropathic pain component N=41
# [18] = Visit 11, presumed or defined neuropathic pain component N=126
# [19] = Visit 11, subjects with nociceptive pain N=49
# [20] = Visit 12, defined neuropathic pain N=85
# [21] = Visit 12, positive diagnosis of lumbar radiculopathy-neuropathic pain subset N=44
# [22] = Visit 12, presumed neuropathic pain component N=41
# [23] = Visit 12, presumed or defined neuropathic
# [24] = Visit 12, presumed or defined neuropathic pain component N=126
# [25] = Visit 12, subjects with nociceptive pain N=49
structure (smiles),measurement,setting,value
"CC[C@@H](c1cccc(O)c1)[C@@H](C)CN(C)C [tapentadol, (−)-(1R,2R)-3-(3-dimethylamino-1-ethyl-2-methyl-propyl)-phenol]",Anxiety score Median,"Visit 8, positive diagnosis of lumbar radiculopathy-neuropathic pain subset N=44",5.0
same,Anxiety score Mean (SD),[1],4.9 (4.04)
same,Anxiety score Median,[1],4.0
same,Anxiety score change from baseline Mean (SD),[2],−2.4 (3.57)
same,Anxiety score change from baseline Median,[2],−2.0
same,Anxiety score Mean (SD),[3],5.7 (3.80)
same,Anxiety score Median,[3],5.0
same,Anxiety score Mean (SD),[4],5.4 (4.40)
same,Anxiety score Median,[4],4.0
same,Anxiety score change from baseline Mean (SD),"Visit 8, total",−1.9 (3.72)
same,Anxiety score change from baseline Median,"Visit 8, total",−2.0
same,Anxiety score Mean (SD),"Visit 8, total subjects N=175",5.6 (3.95)
same,Anxiety score Median,"Visit 8, total subjects N=175",5.0
same,Anxiety score Mean (SD),[5],6.1 (3.99)
same,Anxiety score Median,[5],5.0
same,Anxiety score Mean (SD),[6],6.2 (4.01)
same,Anxiety score Median,[6],5.0
same,Anxiety score Mean (SD),[7],6.1 (5.10)
same,Anxiety score Median,[7],6.0
same,Anxiety score Mean (SD),[8],6.1 (4.32)
same,Anxiety score Median,[8],5.0
same,Anxiety score Mean (SD),[9],4.6 (3.34)
same,Anxiety score Median,[9],4.0
same,Anxiety score Mean (SD),"Visit 9, total subjects N=175",5.7 (4.10)
same,Anxiety score Median,"Visit 9, total subjects N=175",4.0
same,Anxiety score Mean (SD),[10],6.1 (3.98)
same,Anxiety score Median,[10],6.0
same,Anxiety score Mean (SD),[11],6.1 (3.85)
same,Anxiety score Median,[11],6.0
same,Anxiety score Mean (SD),[12],5.5 (5.46)
same,Anxiety score Median,[12],4.0
same,Anxiety score Mean (SD),[13],5.9 (4.46)
same,Anxiety score Median,[13],5.0
same,Anxiety score Mean (SD),[14],4.7 (3.21)
same,Anxiety score Median,[14],4.0
same,Anxiety score Mean (SD),"Visit 10, total subjects N=175",5.6 (4.16)
same,Anxiety score Median,"Visit 10, total subjects N=175",5.0
same,Anxiety score Mean (SD),[15],5.9 (3.84)
same,Anxiety score Median,[15],5.5
same,Anxiety score Mean (SD),[16],6.3 (4.25)
same,Anxiety score Median,[16],6.5
same,Anxiety score Mean (SD),[17],5.1 (4.25)
same,Anxiety score Median,[17],4.0
same,Anxiety score Mean (SD),[18],5.6 (3.96)
same,Anxiety score Median,[18],5.0
same,Anxiety score Mean (SD),[19],4.8 (3.77)
same,Anxiety score Median,[19],4.0
same,Anxiety score Mean (SD),"Visit 11, total subjects N=175",5.4 (3.91)
same,Anxiety score Median,"Visit 11, total subjects N=175",5.0
same,Anxiety score change from baseline Mean (SD),Visit 12,−3.1 (3.16)
same,Anxiety score change from baseline Median,Visit 12,−3.0
same,Anxiety score change from baseline Mean (SD),"Visit 12, defined neuropathic",−2.3 (4.14)
same,Anxiety score change from baseline Median,"Visit 12, defined neuropathic",−2.0
same,Anxiety score Mean (SD),[20],5.7 (3.80)
same,Anxiety score Median,[20],5.0
same,Anxiety score change from baseline Mean (SD),"Visit 12, lumbar radiculopathy",−2.2 (4.11)
same,Anxiety score change from baseline Median,"Visit 12, lumbar radiculopathy",−2.0
same,Anxiety score change from baseline Mean (SD),"Visit 12, nociceptive",−0.8 (2.82)
same,Anxiety score change from baseline Median,"Visit 12, nociceptive",−1.0
same,Anxiety score Mean (SD),[21],5.7 (3.59)
same,Anxiety score Median,[21],6.0
same,Anxiety score Mean (SD),[22],4.8 (3.67)
same,Anxiety score Median,[22],4.0
same,Anxiety score change from baseline Mean (SD),[23],−2.5 (3.85)
same,Anxiety score change from baseline Median,[23],−2.0
same,Anxiety score Mean (SD),[24],5.4 (3.76)
same,Anxiety score Median,[24],5.0
same,Anxiety score Mean (SD),[25],4.5 (3.65)
same,Anxiety score Median,[25],3.0
same,Anxiety score change from baseline Mean (SD),"Visit 12, total",−2.1 (3.67)
same,Anxiety score change from baseline Median,"Visit 12, total",−2.0
same,Anxiety score Mean (SD),"Visit 12, total subjects N=175",5.2 (3.73)
same,Anxiety score Median,"Visit 12, total subjects N=175",4.0
same,efficacy against anxiety,conclusion from the clinical data,significant efficacy
